Target: T1, full-length human Mineralocorticoid Receptor (MR) (Homo sapiens, UniProt P08235)
T1 construct: host or cells: PathHunter CHO-K1 cells
T1 sequence (P08235 1-984): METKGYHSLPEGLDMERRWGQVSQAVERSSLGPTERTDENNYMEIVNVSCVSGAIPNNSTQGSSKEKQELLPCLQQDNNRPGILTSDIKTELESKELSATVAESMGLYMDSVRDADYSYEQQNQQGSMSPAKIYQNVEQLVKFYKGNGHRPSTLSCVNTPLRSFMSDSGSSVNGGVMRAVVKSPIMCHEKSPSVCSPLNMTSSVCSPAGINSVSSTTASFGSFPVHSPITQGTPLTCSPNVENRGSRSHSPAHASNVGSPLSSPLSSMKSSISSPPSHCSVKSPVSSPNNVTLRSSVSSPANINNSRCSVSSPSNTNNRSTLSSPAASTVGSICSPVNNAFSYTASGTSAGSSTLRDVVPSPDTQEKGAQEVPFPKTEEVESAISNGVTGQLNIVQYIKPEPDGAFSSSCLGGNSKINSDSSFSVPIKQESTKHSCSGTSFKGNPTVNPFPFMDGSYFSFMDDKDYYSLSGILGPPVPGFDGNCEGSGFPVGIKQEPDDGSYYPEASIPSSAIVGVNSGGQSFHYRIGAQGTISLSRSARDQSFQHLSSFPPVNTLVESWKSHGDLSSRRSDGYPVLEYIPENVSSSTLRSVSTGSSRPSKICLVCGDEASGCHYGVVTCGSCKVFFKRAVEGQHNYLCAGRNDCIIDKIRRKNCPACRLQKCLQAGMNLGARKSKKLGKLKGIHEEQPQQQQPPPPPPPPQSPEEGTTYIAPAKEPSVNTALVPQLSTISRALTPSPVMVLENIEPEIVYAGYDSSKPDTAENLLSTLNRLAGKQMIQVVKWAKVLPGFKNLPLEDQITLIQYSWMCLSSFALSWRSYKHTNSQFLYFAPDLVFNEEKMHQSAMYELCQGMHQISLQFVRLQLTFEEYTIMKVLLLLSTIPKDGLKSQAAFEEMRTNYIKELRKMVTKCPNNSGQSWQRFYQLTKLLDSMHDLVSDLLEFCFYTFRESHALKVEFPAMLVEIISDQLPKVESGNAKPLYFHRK
Assay: human MR NH Pro assay (PathHunter Protein:Protein interaction assay), MR antagonist activity
Format: cell-based
Settings: PathHunter CHO-K1 cells overexpressing human MR; aldosterone 0.3 nM to about 1 nM; 6 hours at 37° C.; luminescence; read-out: IP (rating); IP is the inflection point for a given dose-response titration curve
Source text: The activity of the compounds of the present invention regarding mineralocorticoid receptor antagonism can be evaluated using the following assay.
Assessment of MR Potency in HMR NH Pro Assay
The human MR NH Pro assay is a commercially available PathHunter™ Protein:Protein interaction assay (DiscoveRx; http://www.discoverx.com/nhrs/prod-nhrs.php) that measures the ability of compounds to antagonize full-length human Mineralocorticoid Receptor (MR) binding to a coactivator peptide. PathHunter™ CHO-K1 cells that overexpress human MR (Cat #93-0456C2, Lot No: 09B0913) were cultured in growth media (F12K w/Glutamine and phenol red (Gibco 11765-047) supplemented with 10% HI FBS (Gibco 16000); 0.25 mg/ml Hygromycin in PBS (Invitrogen 10687-010, 50 mg/ml); 100 I.U./mL and 100 μg/mL Pen/Strep (Gibco 15140-122); 0.6 mg/mL Geneticin (Gibco 10131-027).
Compounds were assessed for MR antagonist activity by incubating the cells with a titrating dose of compound in F12K w/Glutamine and phenol red culture media (Invitrogen 11765-047) supplemented with 1% Charcoal/Dextran Treated FBS (Hyclone #SH30068.01) and aldosterone (0.3 nM to about 1 nM) for 6 hours at 37° C. Cells were then treated with DiscoveRx detection reagent for 1 hour at room temperature and read using an Envision luminescence plate reader. % activity was measured relative to cells treated with aldosterone alone and IC50 values were calculated using ADA software.
Stock solution was prepared at 10 μM in DMSO and stored at −20° C. for assay, dilute in assay media to 1.8 or 6 nM (6× of final concentration=about 0.3 nM to about 1.0 nM)
5. Cell line: PathHunter CHO-K1 MR cells Cat #93-0456C2, Lot No: 09B0913, from operation liquid nitrogen stock.
3. The cells concentration was adjusted to 4×10^5 cells/mL.
4. Cells were (25 μL/well) added to the wells of a 384 well plate.
5. The plate was then incubated at 37° C. over night in a humidified incubator with 5% CO2.
6. Test compounds were titrated starting at 4.4 mM, 10-point titration in 1:3 dilution.
7. Aldosterone was diluted in assay media to 1.8 nM or 6 nM from 10 μM stock (final concentration to be about 0.3 nM to about 1.0 nM)
1. 10K exponentially growing cells/well (25 μL) were resuspended in assay media and plated into each well using the Multidrop (Thermo Electron) (use white wall, clear bottom assay plates (Costar #3570) and incubated overnight at 37° C., 5% CO2.
2. 0.25 μL 120× test compound (final DMSO concentration should be <1%) was added to each well n=2, 10 point titrations starting at 36.7 μM final concentration.
3. 5 μL of 6× agonist (final aldosterone concentration should be about 0.3 nM to about 1.0 nM) was added to all wells (using the PlateMate Plus; (ThermoFisher) (except those wells in columns 23 and 24)
4. 5 μL of assay media was added to all wells in column 23 and 24.
5. Cells were then incubated for 6 hrs at 37° C., 5% CO2.
6. 15 μL 3× DiscoveRx detection reagent was then added to each well.
7. Plates were incubated for 1 hour at room temperature in the dark.
8. Plates were read on Envision (PerkinElmer) luminesence plate reader and analyzed using ADA.

SMILES | IC50
CC(C)(C)OC(=O)Cn1nc(C(C)(C)c2ccc(Cl)cc2)c2ccccc21 [Example 18, tert-butyl {3-[1-(4-chlorophenyl)-1-methylethyl]-1H-indazol-1-yl}acetate] | 500 to 6000 nM
CCC(CC)(c1ccc(Cl)cc1)c1nn(CC(=O)OC)c2ccccc12 [Example 19, methyl {3-[1-(4-chlorophenyl)-1-ethylpropyl]-1H-indazol-1-yl}acetate] | 100 to 500 nM
COC(=O)Cn1nc(Cc2ccc(Cl)cc2)c2ccccc21 [Example 20, Methyl [3-(4-chlorobenzyl)-1H-indazol-1yl]acetate] | 500 to 6000 nM
Clc1ccc(Cc2nn(Cc3ccccc3)c3ccccc23)cc1 [Example 21, 3-(4-chlorobenzyl)-1-benzyl-1H-indazole] | 500 to 6000 nM

Next, values leading:

IC50 | SMILES
500 to 6000 nM | N#CCCC(c1ccc(Cl)cc1F)c1nn(CC#N)c2ccccc12 (stereo not drawn) [Example 17E, 4-(4-chloro-2-fluorophenyl)-4-[1-(cyano-methyl)-1H-indazol-3-yl]-butanenitrile]
500 to 6000 nM | COCCn1nc(C(CCC#N)c2ccc(Cl)cc2F)c2ccccc21 (stereo not drawn) [Example 17F, 4-(4-chloro-2-fluorophenyl)-4-[1-(2-methoxyethyl)-1H-indazol-3-yl]butanenitrile]
